Experimental data as given in patent publication US10479780B2, “Aminopyrazole derivatives” (Chugai Seiyaku Kabushiki Kaisha, priority 2015, dated 2019).

Legend:
Assay type in all cases: biochemical
human Yes1 enzyme = molecular target: T1, human Yes1 enzyme (Homo sapiens, UniProt P07947); experiment: Yes1 enzyme inhibitory activity (time-resolved fluorometry, biotinylated peptide phosphorylation); conditions: read-out: YES_IC50
T1 construct: made in house
Procedure, shortened: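 Inhibition was expressed against a compound-free control to give IC50, using TR-FRET read-out (Eu-cryptate anti-pTyr antibody, streptavidin-XL665).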

human Src enzyme = molecular target: T2, human Src enzyme (Homo sapiens, UniProt P12931); experiment: Src enzyme inhibitory activity (time-resolved fluorometry, biotinylated peptide phosphorylation); conditions: read-out: SRC_IC50
T2 construct: purchased Carna Biosciences, Inc. 08-173
T2 sequence (P12931 whole entry): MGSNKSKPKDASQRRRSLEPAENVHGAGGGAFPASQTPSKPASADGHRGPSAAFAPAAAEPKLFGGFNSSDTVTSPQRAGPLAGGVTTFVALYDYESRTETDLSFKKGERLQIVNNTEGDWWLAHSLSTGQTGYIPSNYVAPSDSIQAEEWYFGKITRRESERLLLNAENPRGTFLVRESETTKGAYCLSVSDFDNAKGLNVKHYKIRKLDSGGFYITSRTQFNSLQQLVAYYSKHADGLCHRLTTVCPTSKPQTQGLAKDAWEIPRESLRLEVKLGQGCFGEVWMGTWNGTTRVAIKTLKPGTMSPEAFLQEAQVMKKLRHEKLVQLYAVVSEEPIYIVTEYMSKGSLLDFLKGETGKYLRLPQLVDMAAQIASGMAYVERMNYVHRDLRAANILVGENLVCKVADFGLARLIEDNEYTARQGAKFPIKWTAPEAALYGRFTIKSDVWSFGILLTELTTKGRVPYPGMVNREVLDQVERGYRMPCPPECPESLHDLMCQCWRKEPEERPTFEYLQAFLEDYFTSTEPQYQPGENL
Procedure, shortened: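 Compounds were tested for blocking tyrosine phosphorylation of a biotinylated peptide substrate by recombinant human Src. Phosphorylated product was quantified by time-resolved fluorometry using europium cryptate and XL665 conjugates, and IC50 was calculated against the compound-free control.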

human Lck enzyme = molecular target: T3, human Lck enzyme (Homo sapiens, UniProt P06239); experiment: Lck enzyme inhibitory activity (time-resolved fluorometry, biotinylated peptide phosphorylation); conditions: read-out: LCK_IC50
T3 construct: purchased Carna Biosciences, Inc. 08-170
T3 sequence (P06239 whole entry): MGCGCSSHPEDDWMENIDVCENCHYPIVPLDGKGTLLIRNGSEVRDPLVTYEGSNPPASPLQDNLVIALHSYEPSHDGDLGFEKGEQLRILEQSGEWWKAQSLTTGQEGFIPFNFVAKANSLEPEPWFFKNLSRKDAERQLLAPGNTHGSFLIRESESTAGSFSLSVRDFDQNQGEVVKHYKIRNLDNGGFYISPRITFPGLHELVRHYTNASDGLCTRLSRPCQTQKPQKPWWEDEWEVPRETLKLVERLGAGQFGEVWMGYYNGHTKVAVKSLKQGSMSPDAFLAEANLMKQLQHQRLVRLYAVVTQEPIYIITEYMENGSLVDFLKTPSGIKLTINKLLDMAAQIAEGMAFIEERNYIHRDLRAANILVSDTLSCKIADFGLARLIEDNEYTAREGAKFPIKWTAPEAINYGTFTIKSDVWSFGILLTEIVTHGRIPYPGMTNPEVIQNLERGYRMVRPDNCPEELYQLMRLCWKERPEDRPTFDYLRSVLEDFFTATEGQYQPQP
Procedure, shortened: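 Readout pairs a europium cryptate-labelled anti-phosphotyrosine antibody with XL665-streptavidin, measured by time-resolved fluorescence. IC50 derived from percent inhibition against untreated controls.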

T1 sequence (P07947 whole entry): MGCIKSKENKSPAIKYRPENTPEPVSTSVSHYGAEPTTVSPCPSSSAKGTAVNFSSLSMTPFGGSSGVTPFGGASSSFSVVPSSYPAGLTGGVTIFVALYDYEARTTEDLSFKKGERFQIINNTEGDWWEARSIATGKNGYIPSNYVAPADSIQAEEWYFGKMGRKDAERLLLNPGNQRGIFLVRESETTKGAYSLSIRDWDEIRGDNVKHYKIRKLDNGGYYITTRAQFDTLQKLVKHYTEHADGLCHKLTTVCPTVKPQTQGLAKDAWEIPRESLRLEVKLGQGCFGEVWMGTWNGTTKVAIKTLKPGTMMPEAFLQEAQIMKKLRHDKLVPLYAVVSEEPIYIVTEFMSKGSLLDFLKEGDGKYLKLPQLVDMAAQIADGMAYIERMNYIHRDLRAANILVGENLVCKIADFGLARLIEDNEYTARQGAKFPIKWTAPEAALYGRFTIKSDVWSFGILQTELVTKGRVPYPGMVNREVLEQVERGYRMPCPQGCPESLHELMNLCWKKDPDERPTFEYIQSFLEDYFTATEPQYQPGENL

SMILES | IC50 (human Yes1 enzyme) | IC50 (human Src enzyme) | IC50 (human Lck enzyme)
Cc1cc(Oc2c(F)cccc2F)ncc1-n1ncc(C(=O)c2cc3cc(N4CCOCC4)c(Br)cc3[nH]2)c1N [Example 5-1-155, [5-amino-1-[6-(2,6-difluorophenoxy)-4-methylpyridin-3-yl]pyrazol-4-yl]-(6-bromo-5-morpholin-4-yl-1H-indol-2-yl)methanone] | 1.6 nM | 22 nM | 12 nM
Cc1cc(-n2ncc(C(=O)c3cc4cc(OC5CCN(C(C)C)CC5)c(NS(C)(=O)=O)cc4[nH]3)c2N)ccc1Oc1ccccc1F [Example 5-1-156, N-(2-(5-amino-1-(4-(2-fluorophenoxy)-3-methylphenyl)-1H-pyrazole-4-carbonyl)-5-((1-isopropylpiperidin-4-yl)oxy)-1H-indol-6-yl)methanesulfonamide] | 1.6 nM | 1100 nM | 64 nM
Cc1cc(-n2ncc(C(=O)c3cc4cc(N5CCOCC5)c(NS(C)(=O)=O)cc4[nH]3)c2N)ccc1Oc1ccccc1F [Example 5-1-157, N-[2-[5-amino-1-[4-(2-fluorophenoxy)-3-methylphenyl]pyrazole-4-carbonyl]-5-morpholin-4-yl-1H-indol-6-yl] methanesulfonamide] | 1.9 nM | 1100 nM | 480 nM
Cc1cc(-n2ncc(C(=O)c3cc4cc(N5CCOCC5)c(N5CCN(S(C)(=O)=O)CC5)cc4[nH]3)c2N)ccc1Oc1ccccc1F [Example 5-1-158, [5-amino-1-[4-(2-fluorophenoxy)-3-methylphenyl]pyrazol-4-yl]-[6-(4-methylsulfonylpiperazin-1-yl)-5-morpholin-4-yl-1H-indol-2-yl]methanone] | 0.9 nM | 76 nM | 42 nM
Cc1cc(-n2ncc(C(=O)c3cc4cc(N5CCOCC5)c(N5CCOCC5)cc4[nH]3)c2N)ccc1Oc1ccccc1F [Example 5-1-159, [5-amino-1-[4-(2-fluorophenoxy)-3-methylphenyl]pyrazol-4-yl]-(5,6-dimorpholin-4-yl-1H-indol-2-yl)methanone] | 1.4 nM | 96 nM | 39 nM
Cc1cc(-n2ncc(C(=O)c3cc4cc(N5CCOCC5)c(N5CCOC5=O)cc4[nH]3)c2N)ccc1Oc1ccccc1F [Example 5-1-160, 3-[2-[5-amino-1-[4-(2-fluorophenoxy)-3-methylphenyl]pyrazole-4-carbonyl]-5-morpholin-4-yl-1H-indol-6-yl]-1,3-oxazolidin-2-one] | 0.71 nM | 230 nM | 33 nM
Cc1cc(-n2ncc(C(=O)c3cc4cc(OC(F)F)c(N)cc4[nH]3)c2N)ccc1Oc1ccccc1F [Example 5-1-161, [6-amino-5-(difluoromethoxy)-1H-indol-2-yl]-[5-amino-1-[4-(2-fluorophenoxy)-3-methylphenyl]pyrazol-4-yl]methanone] | 2.8 nM | 600 nM | 160 nM
Cc1cc(-n2ncc(C(=O)c3cc4cc(OCC(F)F)c(N)cc4[nH]3)c2N)ccc1Oc1ccccc1F [Example 5-1-162, [6-amino-5-(2,2-difluoroethoxy)-1H-indol-2-yl]-[5-amino-1-[4-(2-fluorophenoxy)-3-methylphenyl]pyrazol-4-yl]methanone] | 2.1 nM | 480 nM | 120 nM
Cc1cc(-n2ncc(C(=O)c3cc4cc(OC5CCN(C(C)C)CC5)c(N)cc4[nH]3)c2N)ccc1Oc1ccccc1F [Example 5-1-163, (5-amino-1-(4-(2-fluorophenoxy)-3-methylphenyl)-1H-pyrazol-4-yl)(6-amino-5-((1-isopropylpiperidin-4-yl)oxy)-1H-indol-2-yl)methanone] | 0.64 nM | 59 nM | 7 nM
Cc1cc(-n2ncc(C(=O)c3cc4cc(N5CCOCC5)c(N5C(=O)NC(C)(C)C5=O)cc4[nH]3)c2N)ccc1Oc1ccccc1F [Example 5-1-164, 3-[2-[5-amino-1-[4-(2-fluorophenoxy)-3-methylphenyl]pyrazole-4-carbonyl]-5-morpholin-4-yl-1H-indol-6-yl]-5,5-dimethylimidazolidine-2,4-dione] | 1.8 nM | 700 nM | 69 nM
Cc1cc(-n2ncc(C(=O)c3cc4cc(N5CCOCC5)c(N5CCC(N6CCOCC6)CC5)cc4[nH]3)c2N)ccc1Oc1ccccc1F [Example 5-1-165, [5-amino-1-[4-(2-fluorophenoxy)-3-methylphenyl]pyrazol-4-yl]-[5-morpholin-4-yl-6-(4-morpholin-4-ylpiperidin-1-yl)-1H-indol-2-yl] methanone] | 1.8 nM | 340 nM | 37 nM
Cc1cc(-n2ncc(C(=O)c3cc4cc(OCC(F)F)c(NS(C)(=O)=O)cc4[nH]3)c2N)ccc1Oc1ccccc1F [Example 5-1-166, N-[2-[5-amino-1-[4-(2-fluorophenoxy)-3-methylphenyl]pyrazole-4-carbonyl]-5-(2,2-difluoroethoxy)-1H-indol-6-yl] methanesulfonamide] | 2 nM | 820 nM | 250 nM
Cc1cc(-n2ncc(C(=O)c3cc4cc(OC(F)F)c(NS(C)(=O)=O)cc4[nH]3)c2N)ccc1Oc1ccccc1F [Example 5-1-167, N-[2-[5-amino-1-[4-(2-fluorophenoxy)-3-methylphenyl]pyrazole-4-carbonyl]-5-(difluoromethoxy)-1H-indol-6-yl] methanesulfonamide] | 3.6 nM | 2000 nM | 370 nM
Cc1cc(-n2ncc(C(=O)c3cc4cc(OCC(F)F)c(N5CCOC5=O)cc4[nH]3)c2N)ccc1Oc1ccccc1F [Example 5-1-168, 3-[2-[5-amino-1-[4-(2-fluorophenoxy)-3-methylphenyl]pyrazole-4-carbonyl]-5-(2,2-difluoroethoxy)-1H-indol-6-yl]-1,3-oxazolidin-2-one] | 1.1 nM | 210 nM | 45 nM
Cc1cc(-n2ncc(C(=O)c3cc4cc(OCC(F)F)c(N5CCOCC5)cc4[nH]3)c2N)ccc1Oc1ccccc1F [Example 5-1-169, [5-amino-1-[4-(2-fluorophenoxy)-3-methylphenyl]pyrazol-4-yl]-[5-(2,2-difluoroethoxy)-6-morpholin-4-yl-1H-indol-2-yl] methanone] | 0.88 nM | 100 nM | 46 nM
Cc1cc(-n2ncc(C(=O)c3cc4cc(OCC(F)F)c(N5C(=O)NC(C)(C)C5=O)cc4[nH]3)c2N)ccc1Oc1ccccc1F [Example 5-1-170, 3-[2-[5-amino-1-[4-(2-fluorophenoxy)-3-methylphenyl]pyrazole-4-carbonyl]-5-(2,2-difluoroethoxy)-1H-indol-6-yl]-5,5-dimethylimidazolidine-2,4-dione] | 1.3 nM | 490 nM | 89 nM
Cc1cc(-n2ncc(C(=O)c3cc4cc(OCC(F)F)c(N5CCN(S(C)(=O)=O)CC5)cc4[nH]3)c2N)ccc1Oc1ccccc1F [Example 5-1-171, [5-amino-1-[4-(2-fluorophenoxy)-3-methylphenyl]pyrazol-4-yl]-[5-(2,2-difluoroethoxy)-6-(4-methylsulfonylpiperazin-1-yl)-1H-indol-2-yl]methanone] | 1.1 nM | 79 nM | 49 nM
